Results as given in ChEMBL document CHEMBL1124133, “Synthesis and hypolipidemic activity of 2-substituted isobutyric acid derivatives” (1988).

Columns and labels:
Assay type in all cases: functional
Conditions in all cases: route oral
Rattus norvegicus [1] = assay: Hypolipidemic effects of compound on rat plasma high density lipoprotein cholesterol (HDLC) level after peroral administration at 100 mg/kg dose
Rattus norvegicus [2] = assay: Hypolipidemic effect on rat plasma Total cholesterol (TC) level by peroral administration at 100 mg/kg dose
Rattus norvegicus [3] = assay: Hypolipidemic effects in rat fed a high cholesterol diet (HC) by peroral administration at 100 mg/kg dose(increase in liver weight with respect to body weight mg/g)
Rattus norvegicus [4] = assay: Hypolipidemic effects of compound on rat plasma Triglyceride (TG) level after peroral administration at 100 mg/kg dose
Rattus norvegicus [5] = assay: Hypolipidemic effects in rat fed a normal diet by peroral administration at 100 mg/kg dose(increase in liver weight with respect to body weight mg/g)
Rattus norvegicus [6] = assay: Hypolipidemic effects in rat fed a high cholesterol diet (HC) by peroral administration at 100 mg/kg dose.(increase in liver weight with respect to body weight mg/g)
Rattus norvegicus [7] = assay: Hypolipidemic effects of compound on rat plasma high density lipoprotein cholesterol (HDLC) level after peroral administration at 100 mg/kg dose (Experiment 1)
Rattus norvegicus [8] = assay: Hypolipidemic effects of compound on rat plasma Triglyceride (TG) level after peroral administration at 100 mg/kg dose (Experiment 1)
Rattus norvegicus [9] = assay: Hypolipidemic effects in rat fed a normal diet by peroral administration at 100 mg/kg dose.(increase in liver weight with respect to body weight mg/g); (Experiment 2)
Rattus norvegicus [10] = assay: Hypolipidemic effects of compound on rat plasma high density lipoprotein cholesterol (HDLC) level after peroral administration at 100 mg/kg dose (Experiment 2)
Rattus norvegicus [11] = assay: Hypolipidemic effects in rat fed a high cholesterol diet (HC) by peroral administration at 100 mg/kg dose.(increase in liver weight with respect to body weight mg/g); (Experiment 2)
Rattus norvegicus [12] = assay: Hypolipidemic effects in rat fed a high cholesterol diet (HC) by peroral administration at 100 mg/kg dose.(increase in liver weight with respect to body weight mg/g); (Experiment 1)
Rattus norvegicus [13] = assay: Hypolipidemic effects of compound on rat plasma Triglyceride (TG) level after peroral administration at 100 mg/kg dose (Experiment 2)
Rattus norvegicus [14] = assay: Hypolipidemic effects in rat fed a normal diet by peroral administration at 100 mg/kg dose.(increase in liver weight with respect to body weight mg/g); (Experiment 1)
Rattus norvegicus [15] = assay: Hypolipidemic effect on rat plasma Total cholesterol (TC) level by peroral administration at 100 mg/kg dose (Experiment 1)
Rattus norvegicus [16] = assay: Hypolipidemic effect on rat plasma Total cholesterol (TC) level by peroral administration at 100 mg/kg dose (Experiment 2)
Rattus norvegicus [17] = assay: Hypolipidemic effects in rat plasma high density lipoprotein cholesterol (HDLC) by peroral administration at 100 mg/kg dose
Rattus norvegicus [18] = assay: Hypolipidemic effect in rat plasma Total cholesterol (TC) by peroral administration at 100 mg/kg dose
Rattus norvegicus [19] = assay: Hypolipidemic effects in rat fed a high cholesterol diet (HC) by peroral administration at 100 mg/kg dose.
Rattus norvegicus [20] = assay: Hypolipidemic effects in rat plasma Triglyceride (TG) by peroral administration at 100 mg/kg dose
Rattus norvegicus [21] = assay: Hypolipidemic effects in rat fed a high cholesterol diet (HC) by peroral administration at 100 mg/kg dose. (increase in liver weight with respect to body weight mg/g)
Rattus norvegicus [22] = assay: Hypolipidemic effects in rat fed a normal diet by peroral administration at 100 mg/kg dose.
Rattus norvegicus [23] = assay: Hypolipidemic effects in rat fed a normal diet by peroral administration at 100 mg/kg dose.(increase in liver weight with respect to body weight mg/g)
Rattus norvegicus [24] = assay: Hypolipidemic effects of compound on rat plasma Triglyceride (TG) level after by peroral administration at 100 mg/kg dose
Rattus norvegicus [25] = assay: Hypolipidemic effects in rat fed a high cholesterol diet (HC) by peroral administration at 100 mg/kg dose (increase in liver weight with respect to body weight mg/g)

Compound	HDL-C (Rattus norvegicus [1])	TC (Rattus norvegicus [2])	TG (Rattus norvegicus [4])	Liver weight (Rattus norvegicus [6])	other results
CC(C)(CCCOc1ccc(CCNC(=O)c2ccccc2)cc1)C(=O)O	42.1 mg/dL	204.1 mg/dL	49.4 mg/dL	–	Liver weight (Rattus norvegicus [3]): 57 mg (g of body weight)-1
Cc1ccc(C)c(CCCCc2ccc(OCCCCC(C)(C)C(=O)O)cc2)c1	56 mg/dL	125.9 mg/dL	34.4 mg/dL	59.9 mg (g of body weight)-1	Liver weight (Rattus norvegicus [5]): 40 mg (g of body weight)-1
CC(C)(CCCCOc1ccc(CCCCc2ccccc2)cc1)C(=O)O	–	–	–	–	HDL-C (Rattus norvegicus [7]): 49.4 mg/dL; TG (Rattus norvegicus [8]): 49 mg/dL; Liver weight (Rattus norvegicus [9]): 40.7 mg (g of body weight)-1; HDL-C (Rattus norvegicus [10]): 50.9 mg/dL; Liver weight (Rattus norvegicus [11]): 59.1 mg (g of body weight)-1; Liver weight (Rattus norvegicus [12]): 55.8 mg (g of body weight)-1; TG (Rattus norvegicus [13]): 33.8 mg/dL; Liver weight (Rattus norvegicus [14]): 41.7 mg (g of body weight)-1; TC (Rattus norvegicus [15]): 159.5 mg/dL; TC (Rattus norvegicus [16]): 132.9 mg/dL
Cc1cnc(C(=O)OCC(C)(C)CCCCOc2ccc(CCCCc3ccccc3)cc2)c[n+]1[O-]	–	–	–	–	HDL-C (Rattus norvegicus [17]): 45.3 mg/dL; TC (Rattus norvegicus [18]): <146.6 mg/dL; Liver weight (Rattus norvegicus [19]): 57.8 mg (g of body weight)-1; TG (Rattus norvegicus [20]): 45.8 mg/dL
CC(C)(CCCOc1ccc(Cc2ccccc2)cc1)C(=O)O	29.9 mg/dL	284.4 mg/dL	84.7 mg/dL	–	Liver weight (Rattus norvegicus [21]): 53.2 mg (g of body weight)-1
CC(C)(CCCCCCCCCOc1ccc(CCCCc2ccccc2)cc1)C(=O)O	–	–	–	–	HDL-C (Rattus norvegicus [17]): <55 mg/dL; TC (Rattus norvegicus [18]): <173.6 mg/dL; Liver weight (Rattus norvegicus [22]): <38.2 mg (g of body weight)-1; Liver weight (Rattus norvegicus [19]): 57.5 mg (g of body weight)-1; TG (Rattus norvegicus [20]): 57.3 mg/dL
CC(C)(CCCOc1ccc(CCCc2ccccc2)cc1)C(=O)O	40.6 mg/dL	217.5 mg/dL	–	54 mg (g of body weight)-1	Liver weight (Rattus norvegicus [23]): 39.1 mg (g of body weight)-1; TG (Rattus norvegicus [24]): 79.5 mg/dL
CC(C)(CCCOc1ccc(CCCCCc2ccccc2)cc1)C(=O)O	38.1 mg/dL	261.9 mg/dL	–	54.1 mg (g of body weight)-1	Liver weight (Rattus norvegicus [23]): 40 mg (g of body weight)-1; TG (Rattus norvegicus [24]): 71.9 mg/dL
Cc1ccc(CCCCc2ccc(OCCCCC(C)(C)C(=O)O)cc2)c(C)c1	73 mg/dL	173.9 mg/dL	37 mg/dL	–	Liver weight (Rattus norvegicus [3]): 62.3 mg (g of body weight)-1; Liver weight (Rattus norvegicus [5]): 41.8 mg (g of body weight)-1
CC(C)(CCCCOc1ccc(CCCCc2ccccc2)cc1)C(=O)OCc1cccnc1	59.6 mg/dL	154.3 mg/dL	43.9 mg/dL	58.2 mg (g of body weight)-1	Liver weight (Rattus norvegicus [5]): 38 mg (g of body weight)-1
CC(C)(CCCOc1ccc(CCCCCCc2ccccc2)cc1)C(=O)O	38.4 mg/dL	256.1 mg/dL	–	–	TG (Rattus norvegicus [24]): 86.2 mg/dL; Liver weight (Rattus norvegicus [3]): 52.1 mg (g of body weight)-1
CC(C)(CCCOc1ccc(C(=O)c2ccccc2)cc1)C(=O)O	57.6 mg/dL	260.8 mg/dL	53.6 mg/dL	–	Liver weight (Rattus norvegicus [3]): 81.8 mg (g of body weight)-1
CC(C)(CCCOc1ccc(CCCCc2ccccc2)cc1)C(=O)O	35.2 mg/dL	258.3 mg/dL	76.9 mg/dL	54.5 mg (g of body weight)-1	–
CC(C)(Oc1ccc(CCCCc2ccccc2)cc1)C(=O)O	50.7 mg/dL	194.6 mg/dL	41.3 mg/dL	–	Liver weight (Rattus norvegicus [3]): 67.1 mg (g of body weight)-1; Liver weight (Rattus norvegicus [5]): 54.6 mg (g of body weight)-1
CC(C)(CCCCOc1ccc(CCCCc2ccccc2)cc1)COC(=O)c1cccnc1	49.9 mg/dL	152 mg/dL	46.7 mg/dL	57.8 mg (g of body weight)-1	Liver weight (Rattus norvegicus [5]): 39.7 mg (g of body weight)-1
Cc1cnc(COC(=O)C(C)(C)CCCCOc2ccc(CCCCc3ccccc3)cc2)cn1	51.7 mg/dL	181.5 mg/dL	–	59.6 mg (g of body weight)-1	TG (Rattus norvegicus [24]): 36.9 mg/dL; Liver weight (Rattus norvegicus [5]): 38.2 mg (g of body weight)-1
CC(C)(CCCOc1ccc(-c2ccccc2)cc1)C(=O)O	39.9 mg/dL	222.7 mg/dL	54.3 mg/dL	–	Liver weight (Rattus norvegicus [21]): 54.7 mg (g of body weight)-1
CC(C)(CCCCCCCOc1ccc(CCCCc2ccccc2)cc1)C(=O)O	–	–	–	–	HDL-C (Rattus norvegicus [17]): <65.2 mg/dL; TC (Rattus norvegicus [18]): <145.7 mg/dL; Liver weight (Rattus norvegicus [22]): <40.1 mg (g of body weight)-1; Liver weight (Rattus norvegicus [19]): 57.6 mg (g of body weight)-1; TG (Rattus norvegicus [20]): 43 mg/dL
CC(C)(CCCOc1ccc(CCc2ccccc2)cc1)C(=O)O	32 mg/dL	282.8 mg/dL	92.7 mg/dL	53.5 mg (g of body weight)-1	–
CC(C)(CCCCCOc1ccc(CCCCc2ccccc2)cc1)C(=O)O	52.4 mg/dL	190.6 mg/dL	60.4 mg/dL	58.3 mg (g of body weight)-1	Liver weight (Rattus norvegicus [23]): 36.7 mg (g of body weight)-1
CC(C)(CCCCCCCCCCOc1ccc(CCCCc2ccccc2)cc1)C(=O)O	–	–	–	–	HDL-C (Rattus norvegicus [17]): 48.6 mg/dL; TC (Rattus norvegicus [18]): 248.6 mg/dL; Liver weight (Rattus norvegicus [19]): 57.2 mg (g of body weight)-1; TG (Rattus norvegicus [20]): 52.8 mg/dL
Cc1cnc(C(=O)OCC(C)(C)CCCCOc2ccc(CCCCc3ccccc3)cc2)cn1	47.6 mg/dL	145.1 mg/dL	41 mg/dL	58 mg (g of body weight)-1	–
CC(C)(CCCCCCCCOc1ccc(CCCCc2ccccc2)cc1)C(=O)O	–	–	–	–	HDL-C (Rattus norvegicus [17]): <53.7 mg/dL; TC (Rattus norvegicus [18]): <150 mg/dL; Liver weight (Rattus norvegicus [22]): <39.3 mg (g of body weight)-1; Liver weight (Rattus norvegicus [19]): 58.4 mg (g of body weight)-1; TG (Rattus norvegicus [20]): 47.6 mg/dL
CC(C)(CCCCCCOc1ccc(CCCCc2ccccc2)cc1)C(=O)O	58.1 mg/dL	150.7 mg/dL	48.9 mg/dL	60.2 mg (g of body weight)-1	Liver weight (Rattus norvegicus [5]): 42.3 mg (g of body weight)-1
CCOC(=O)C(C)(C)Oc1ccc(Cl)cc1 [CLOFIBRATE]	–	–	–	–	HDL-C (Rattus norvegicus [17]): 29.4 mg/dL; TC (Rattus norvegicus [18]): <251.2 mg/dL; Liver weight (Rattus norvegicus [22]): <43.1 mg (g of body weight)-1; Liver weight (Rattus norvegicus [19]): 52.8 mg (g of body weight)-1; TG (Rattus norvegicus [20]): <51.8 mg/dL
Cc1ccc(C)c(OCCCC(C)(C)C(=O)O)c1 [GEMFIBROZIL]	51.5 mg/dL	358.7 mg/dL	53.1 mg/dL	–	Liver weight (Rattus norvegicus [23]): 51.4 mg (g of body weight)-1; Liver weight (Rattus norvegicus [25]): 54.8 mg (g of body weight)-1
